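Exposure lasted 48 hours, with cells grown in 96-well plates and compounds tested at five concentrations. Abbreviation: GI50, concentration required for 50% inhibition of growth. At the TGI there is no net growth.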
Experiments:
Assay in all cases: NCI anticancer screen, dose series, 48 h
SK-MEL-2 melanoma = system: SK-MEL-2 melanoma
EKVX NSCLC = system: EKVX NSCLC
DU-145 prostate = system: DU-145 prostate
COLO 205 colon = system: COLO 205 colon
OVCAR-3 ovarian = system: OVCAR-3 ovarian
HOP-92 NSCLC = system: HOP-92 NSCLC
HCT-116 colon = system: HCT-116 colon
SK-MEL-28 melanoma = system: SK-MEL-28 melanoma
KM12 colon = system: KM12 colon
HL-60(TB) leukemia = system: HL-60(TB) leukemia
HT29 colon = system: HT29 colon
NCI-H226 lung = system: NCI-H226 lung
MDA-MB-435 = system: MDA-MB-435
HS 578T breast = system: HS 578T breast
UO-31 renal = system: UO-31 renal
SW-620 colon = system: SW-620 colon
MDA-MB-231 breast = system: MDA-MB-231 breast
OVCAR-5 ovarian = system: OVCAR-5 ovarian
SN12C renal = system: SN12C renal
SF-268 CNS = system: SF-268 CNS
LOX IMVI melanoma = system: LOX IMVI melanoma
MCF7 breast = system: MCF7 breast
RPMI-8226 leukemia = system: RPMI-8226 leukemia
M14 melanoma = system: M14 melanoma
NCI-H460 lung = system: NCI-H460 lung
786-0 renal = system: 786-0 renal
MALME-3M melanoma = system: MALME-3M melanoma
IGROV1 ovarian = system: IGROV1 ovarian
T-47D breast = system: T-47D breast
PC-3 prostate = system: PC-3 prostate
SK-MEL-5 melanoma = system: SK-MEL-5 melanoma
SF-539 CNS = system: SF-539 CNS
A498 renal = system: A498 renal
TK-10 renal = system: TK-10 renal
BT-549 breast = system: BT-549 breast
CAKI-1 renal = system: CAKI-1 renal
SR leukemia = system: SR leukemia
NCI-H522 lung = system: NCI-H522 lung
CCRF-CEM leukemia = system: CCRF-CEM leukemia
MOLT-4 leukemia = system: MOLT-4 leukemia
U251 CNS = system: U251 CNS
SK-OV-3 ovarian = system: SK-OV-3 ovarian
UACC-257 melanoma = system: UACC-257 melanoma
SNB-75 CNS = system: SNB-75 CNS
UACC-62 melanoma = system: UACC-62 melanoma
HCT-15 colon = system: HCT-15 colon
HOP-62 NSCLC = system: HOP-62 NSCLC
RXF 393 renal = system: RXF 393 renal
SNB-19 CNS = system: SNB-19 CNS
OVCAR-4 ovarian = system: OVCAR-4 ovarian
ACHN renal = system: ACHN renal
SF-295 CNS = system: SF-295 CNS
A549 NSCLC = system: A549 NSCLC
HCC-2998 colon = system: HCC-2998 colon

CCN(CC)c1ccc(NC2=C(Cl)C(=O)c3nc(C)ccc3C2=O)cc1
GI50 (SK-MEL-2 melanoma): 1.85 µM | TGI (SK-MEL-2 melanoma): 3.48 µM | GI50 (EKVX NSCLC): 1.59 µM | TGI (EKVX NSCLC): 3.33 µM | GI50 (DU-145 prostate): 1.93 µM | TGI (DU-145 prostate): 3.51 µM | GI50 (COLO 205 colon): 1.92 µM | TGI (COLO 205 colon): 3.82 µM | GI50 (OVCAR-3 ovarian): 1.81 µM | TGI (OVCAR-3 ovarian): 3.3 µM | GI50 (HOP-92 NSCLC): 1.71 µM | TGI (HOP-92 NSCLC): 3.41 µM | GI50 (HCT-116 colon): 1.75 µM | TGI (HCT-116 colon): 3.63 µM | GI50 (SK-MEL-28 melanoma): 2.04 µM | TGI (SK-MEL-28 melanoma): 3.68 µM | GI50 (KM12 colon): 2.42 µM | TGI (KM12 colon): 5.88 µM | GI50 (HL-60(TB) leukemia): 1.55 µM | TGI (HL-60(TB) leukemia): 4.1 µM | GI50 (HT29 colon): 2.66 µM | TGI (HT29 colon): 6.76 µM | GI50 (NCI-H226 lung): 2.27 µM | TGI (NCI-H226 lung): 5.6 µM | GI50 (MDA-MB-435): 1.99 µM | TGI (MDA-MB-435): 3.87 µM | GI50 (HS 578T breast): 2.38 µM | TGI (HS 578T breast): 6.37 µM | GI50 (UO-31 renal): 1.54 µM | TGI (UO-31 renal): 2.93 µM | GI50 (SW-620 colon): 2.18 µM | TGI (SW-620 colon): 4.74 µM | GI50 (MDA-MB-231 breast): 1.89 µM | TGI (MDA-MB-231 breast): 3.69 µM | GI50 (OVCAR-5 ovarian): 2.12 µM | TGI (OVCAR-5 ovarian): 4.1 µM | GI50 (SN12C renal): 1.95 µM | TGI (SN12C renal): 4.35 µM | GI50 (SF-268 CNS): 1.8 µM | TGI (SF-268 CNS): 3.53 µM | GI50 (LOX IMVI melanoma): 1.67 µM | TGI (LOX IMVI melanoma): 3.5 µM | GI50 (MCF7 breast): 1.94 µM | TGI (MCF7 breast): 5.04 µM | GI50 (RPMI-8226 leukemia): 2.52 µM | TGI (RPMI-8226 leukemia): 6.29 µM | GI50 (M14 melanoma): 1.73 µM | TGI (M14 melanoma): 3.3 µM | GI50 (NCI-H460 lung): 5.38 µM | TGI (NCI-H460 lung): 23.2 µM | GI50 (786-0 renal): 1.87 µM | TGI (786-0 renal): 3.55 µM | GI50 (MALME-3M melanoma): 2.18 µM | TGI (MALME-3M melanoma): 4.13 µM | GI50 (IGROV1 ovarian): 2.11 µM | TGI (IGROV1 ovarian): 4.31 µM | GI50 (T-47D breast): 1.96 µM | TGI (T-47D breast): 5.46 µM | GI50 (PC-3 prostate): 1.8 µM | TGI (PC-3 prostate): 3.66 µM | GI50 (SK-MEL-5 melanoma): 1.75 µM | TGI (SK-MEL-5 melanoma): 3.22 µM | GI50 (SF-539 CNS): 1.82 µM | TGI (SF-539 CNS): 3.38 µM | GI50 (A498 renal): 11.9 µM | TGI (A498 renal): 24.5 µM | GI50 (TK-10 renal): 2.05 µM | TGI (TK-10 renal): 3.51 µM | GI50 (BT-549 breast): 1.58 µM | TGI (BT-549 breast): 2.96 µM | GI50 (CAKI-1 renal): 1.61 µM | TGI (CAKI-1 renal): 3.16 µM | GI50 (SR leukemia): 0.643 µM | TGI (SR leukemia): 3.67 µM | GI50 (NCI-H522 lung): 1.81 µM | TGI (NCI-H522 lung): 3.92 µM | GI50 (CCRF-CEM leukemia): 2.27 µM | TGI (CCRF-CEM leukemia): 6.43 µM | GI50 (MOLT-4 leukemia): 1.91 µM | TGI (MOLT-4 leukemia): 5.43 µM | GI50 (U251 CNS): 1.87 µM | TGI (U251 CNS): 3.57 µM | GI50 (SK-OV-3 ovarian): 2.2 µM | TGI (SK-OV-3 ovarian): 6.57 µM | GI50 (UACC-257 melanoma): 1.6 µM | TGI (UACC-257 melanoma): 3 µM | GI50 (SNB-75 CNS): 1.98 µM | TGI (SNB-75 CNS): 5.03 µM | GI50 (UACC-62 melanoma): 1.63 µM | TGI (UACC-62 melanoma): 3.13 µM | GI50 (HCT-15 colon): 1.63 µM | TGI (HCT-15 colon): 3.34 µM | GI50 (HOP-62 NSCLC): 3.21 µM | TGI (HOP-62 NSCLC): 12.2 µM | GI50 (RXF 393 renal): 1.63 µM | TGI (RXF 393 renal): 3.02 µM | GI50 (SNB-19 CNS): 1.77 µM | TGI (SNB-19 CNS): 3.35 µM | GI50 (OVCAR-4 ovarian): 1.82 µM | TGI (OVCAR-4 ovarian): 3.52 µM | GI50 (ACHN renal): 1.93 µM | TGI (ACHN renal): 3.43 µM | GI50 (SF-295 CNS): 1.97 µM | TGI (SF-295 CNS): 4.23 µM | GI50 (A549 NSCLC): 2.61 µM | TGI (A549 NSCLC): 7.05 µM | GI50 (HCC-2998 colon): 1.89 µM | TGI (HCC-2998 colon): 3.55 µM

— PubChem BioAssay (NCI)
